Measured values published in patent US8637679B2, “Process for the isolation of organic compounds useful for the treatment of cancer” (Council of Scientific and Industrial Research, priority 2011, dated 2014).
Entries after “also recorded” stand apart in the source; their conditions may differ. Read-outs that look alike come from different tables or passages of the source.

How the values were obtained:
Molt-4 = assay: MTT cell viability assay, Molt-4; format: cell-based, human; conditions: Homo sapiens; Molt-4, 48 hrs
Experimental: (§1) Human cervical cancer cell lines (HeLa, ME-180 and SiHa), brain tumor cell lines (U87MG, U373MG, U87MG EGFRvIII, T98G, A172 and LN229), lymphoid leukemia (MOLT-3, MOLT-4, REH and CEMC-7), myloid leukemia (K562), pancreatic cancer (MIAPaCa-2, AsPC-1, Panc-1 and Panc 10.05), lung cancer (A549) and colon cancer (HCT116 and SW480) cell lines from American Type Culture Collection, Manassas, Va., USA were grown in IMDM or RPMI (cell specific) Medium supplemented with 10% fetal bovine serum and 1% antibiotic-antimycotic. Cells were cultured in 37° C. in an atmosphere of 5% CO2.
(§2) Viability of cancer cell lines after treatment as at the indicated times was determined by MTT assay. Briefly, 10,000 cells were plated in triplicate in 96 well plates and incubated for 24 and 48 hours in complete media in presence of varying dose of mahanine (0-50 μM). 100 ug MTT was added in each well. Incubate the plate for 1-4 hours at 37° C. and humidified 5% CO2 atmosphere. Absorbance was recorded at 550 nm with 96 well plate readers.

REH = assay: MTT cell viability assay, REH; format: cell-based, human; conditions: Homo sapiens, 48 hrs
Experimental: as §1, §2

A549 = assay: MTT cell viability assay, A549; format: cell-based, human; conditions: Homo sapiens; A549, 48 hrs
Experimental: as §1, §2

Hsp90α = Hsp90α (Homo sapiens, UniProt P07900); assay: γ-ATP sepharose binding assay, Hsp90α; conditions: mahanine at 50 and 100 μM
Experimental: (§3) 5 μg of purified Hsp90α and Hsp90β were pre-incubated separately on ice with 200 μL incubation buffer (10 mM Tris-Hcl, 50 mM KCl, 5 mM MgCl2, 2 mM DTT, 20 mM Na2MoO4, 0.01% NP40, pH 7.5) containing mahanine or 17-AAG and incubated for 30 mins on ice. After the incubation, 25 μL pre-equilibrated γ-phosphate ATP sepharose added and again incubated at 37° C. with frequent agitation.
(§4) Sepharose subsequently washed and analyzed by SDS-PAGE. Then the blot was probed with anti Hsp90 antibody and developed by ECL.

Panc10.05 = assay: MTT cell viability assay, Panc10.05; format: cell-based, human; conditions: Homo sapiens, Panc1005; Panc10.05, 48 hrs
Experimental: as §1, §2

ME180 = assay: MTT cell viability assay, ME180; format: cell-based; conditions: Homo sapiens, ME-180, ME180, 48 hr
Experimental: as §1, §2

NCIH23 = assay: MTT cell viability assay, NCIH23; format: cell-based, human; conditions: Homo sapiens, NCI-H23; NCIH23, 48 hrs
Experimental: as §2

SiHa = assay: MTT cell viability assay, SiHa; format: cell-based; conditions: Homo sapiens, 48 hr
Experimental: as §1, §2

MIAPaCa-2 = assay: Transmigration assay (EGF-driven); format: cell-based, human; conditions: 24 hrs exposure
Experimental: MIAPaCa-2 cells were treated with mahanine in dose responsive manner for 24 hrs. Afterward, different growth factors (VEGF, EGF and PDGF) were dissolved in medium at a final concentration of 20 ng/ml and added into the outer well of the 24-transwell plate (PromoCell Heidelberg, Germany) as per manufacturer instruction. Mahanine-pretreated cells (5×10^4 cells/well/500 μl) were added into the insert and incubated at in a humidified incubator (37° C., 5% CO2) for 6 hours and subsequently invaded cells were fixed with chilled methanol and stained with 0.1% crystal violet. Random fields were photographed and quantified under the phase contrast microscope.

Hsp90β = Hsp90β (Homo sapiens, UniProt P08238); assay: γ-ATP sepharose binding assay, Hsp90β; conditions: mahanine at 50 and 100 μM
Chain of Hsp90β (P08238 whole entry): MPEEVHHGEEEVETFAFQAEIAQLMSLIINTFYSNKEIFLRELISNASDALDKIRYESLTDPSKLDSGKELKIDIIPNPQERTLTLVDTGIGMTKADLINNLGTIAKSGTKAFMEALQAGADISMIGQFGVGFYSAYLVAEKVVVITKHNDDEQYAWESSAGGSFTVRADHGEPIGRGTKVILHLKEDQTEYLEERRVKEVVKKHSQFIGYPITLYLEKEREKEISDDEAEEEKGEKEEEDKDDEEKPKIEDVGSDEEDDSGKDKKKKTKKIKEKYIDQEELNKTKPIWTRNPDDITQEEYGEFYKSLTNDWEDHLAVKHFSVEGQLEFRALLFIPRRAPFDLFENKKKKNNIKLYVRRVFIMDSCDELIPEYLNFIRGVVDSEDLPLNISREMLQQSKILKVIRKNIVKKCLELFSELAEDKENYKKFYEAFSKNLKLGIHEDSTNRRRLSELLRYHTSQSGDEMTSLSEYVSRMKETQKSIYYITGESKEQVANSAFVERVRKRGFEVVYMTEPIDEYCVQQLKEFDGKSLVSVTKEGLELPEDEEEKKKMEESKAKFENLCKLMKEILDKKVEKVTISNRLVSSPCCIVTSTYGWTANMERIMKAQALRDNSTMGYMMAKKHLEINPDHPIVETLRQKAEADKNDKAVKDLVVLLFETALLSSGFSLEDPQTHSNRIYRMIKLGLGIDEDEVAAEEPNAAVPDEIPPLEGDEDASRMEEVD
Experimental: as §3, §4

[1] = tested on: glioma cells (U87MG, U373MG, LN229, A172 and T98G); assay: MTT assay, panel of glioma cell lines; format: cell-based, human; conditions: Homo sapiens, Glioma cell, range over U87MG, 48 hr, read-out: IC50 values against different glioma cell lines
Experimental: as §1, §2

cancer cell lines = assay: MTT assay, pooled cancer cell lines of several cancer types; format: cell-based, human
Experimental: as §1, §2

human Hsp90 = assay: Surface plasmon resonance binding to immobilized Hsp90; conditions: SPR, Hsp90-mahanine complex
Experimental: The portion of the sensorgram which corresponds to the dissociation of mahanine from Hsp90 was analyzed by the BIA evaluation program 2.1 to obtain the dissociation rate (kd) (FIG. 22). The experimental data fits well with the single exponential kinetic model used. Some experiments were repeated at a flow rate of 5 μl/min to check the effect of possible rebinding. Rebinding and mass transfer limitation was also checked by the repetition of the experiments at lower levels of immobilized Hsp90. […] Using the corresponding kd values nonlinear curve fitting of the association phase of the corresponding sensorgram was carried out with the BIA evaluation program 2.1 to obtain association rate (ka).
All the solutions were passed through a 0.22 micron Millipore filter and de-gassed in vacuum for 6-7 minutes at room temperature. For coupling Hsp90 to the SPR sensor chips, 400 μl (50 μg/ml) human Hsp90 was dialysed over night at 4° C. against coupling buffer containing 5 mM Na2HPO4, pH 7.4 and 150 mM NaCl to remove Tris, which interferes with the coupling. Before coupling, carboxymethyl-dextran sensor chips (CM5, Lot 1170768, Biacore, Upsala Sweden) were incubated with running buffer containing 10 mM HEPES, pH 7.4, 0.15 M KCl and 0.001% Tween-20 to prevent the unspecific binding of proteins to the capillaries in a BIAcore apparatus for 10 minutes at 25° C. at a flow rate of 5 μl/min. […]

WI-38 = assay: MTT cell viability assay, WI-38 normal cells; format: cell-based, human
Experimental: as §2

## CC(C)=CCCC1(C)C=Cc2c(c(C)cc3c2[nH]c2cc(O)ccc23)O1 (stereo not shown) [Mahanine, mahanine]
Molt-4
  IC50: 10.7 ± 0.6 µM
REH
  IC50: 11.6 ± 0.7 µM
A549
  IC50: 12.8 ± 1.1 µM
Hsp90α
  effect on ATP binding to purified Hsp90: could not reduce
Panc10.05
  IC50: 18.5 ± 1.6 µM
ME180
  IC50: 14.6 µM
NCIH23
  IC50: 7.08 ± 0.1 µM
SiHa
  IC50: 14.5 µM
MIAPaCa-2; ~0.6×IC50 (10 μM)
  EGF-driven MIAPaCa-2 migration, % of controls: 48.6 % of controls
MIAPaCa-2; ~1×IC50, 15 μM
  EGF-driven MIAPaCa-2 migration: nearly complete inhibition
Hsp90β
  effect on ATP binding to purified Hsp90: could not reduce
[1]
  IC50: 12 to 17 µM
Cancer cell lines; Homo sapiens, Pancreatic cancer cell, 48 h, range, 48 hr treatment, read-out: IC50, glioma, cervical and pancreatic cancer cell lines
  IC50: 11 to 14 µM
Cancer cell lines; Homo sapiens, mahanine at 20 μM, read-out: inhibition of cancer cells
  inhibition at 20 µM: 75 to 85%
Cancer cell lines; range over glioma and cervical cancer cell lines, 48 hr, listed as 1b, read-out: IC50, glioma and cervical cancer cells
  IC50: 30 to 50 µM
Cancer cell lines; range over glioma and cervical cancer cell lines, 48 hr, read-out: IC50, glioma and cervical cancer cells
  IC50: 12 to 17 µM
Human Hsp90
  Dissociation constant (KD) (kd/ka): 4.99 µM
WI-38; Homo sapiens, WI-38 normal cell line, 48 hrs
  IC50: > 65 µM
WI-38; normal human lung fibroblast cells, in vitro
  sensitivity of WI-38 cells: less sensitive; also recorded: minimum sensitivity
